This note sets out measurements from patent EP0819136B1, “MDP DERIVATIVES AND CONJUGATES HAVING HAEMATOPOIETIC FUNCTION STIMULATING ACTIVITY, AND COMPOSITIONS CONTAINING SAME” (VACSYN S.A., priority 1995, dated 1996).

Structures are written as SMILES.

The subject of one data set is myélocytes circulants. In words: Circulating myelocytes during two weeks of oral treatment, 4 days per week (Example 4, figure 11). The conditions noted are these: p.o. days 0, 1, 2, 3 and 7, 8, 9, 10; MDM 25 mg/kg, AZT 50 mg/kg or both. The format is in vivo, souris. As to the method:
La figure 11 représente l'effet d'un traitement per os de souris pendant deux semaines consécutives (4 jours par semaine) avec l'AZT, le Muradimétide ou le mélange des deux sur le nombre des myélocytes circulants.
La figure 11 montre l'effet d'un traitement par le MDM à 25 mg/kg (X), de l'AZT à 50 mg/kg (O) et du mélange des deux (□) sur le comptage des myélocytes de souris traitées pendant 2 semaines aux jours 0, 1, 2, 3 de la première semaine et 7, 8, 9, 10 de la deuxième semaine. […] Si l'effet est surtout marqué au niveau de la première semaine, cela montre que le traitement nécessite un certain espace de temps entre les différents cycles de traitement et que des traitements répétés pourraient, le cas échéant, être utiles.

The subject of data set [1] is globules rouges et les plaquettes. In words: Red blood cell and platelet counts after 7 days of oral AZT, Muradimétide or both (Example 3, figures 9 and 10). The format is in vivo, souris femelles BALB/c. Conditions: p.o. once daily for 7 days: 100 mg/kg AZT, 50 mg/kg muradimétide, or both simultaneously; counts up to day 10. The source says: La figure 9 représente l'effet du traitement per os de souris BALB/c pendant 7 jours consécutifs avec de l'AZT, du Muradimétide (MDM) ou un mélange de ceux-ci sur la numération plaquettaire.
La figure 10 représente l'effet du traitement per os de souris BALB/c pendant 7 jours consécutifs avec de l'AZT, du Muradimétide (MDM) ou un mélange de ceux-ci sur le nombre des globules rouges.
L'effet d'un traitement de 7 jours sur le nombre de globules rouges et de plaquettes est indiqué dans les figures 9 et 10 respectivement. Les numérations sont représentées en pourcentage de celles obtenues au jour 0. Des souris femelles BALB/c (5 par groupe) sont traitées une fois par jour pendant 7 jours consécutifs par 100 mg/kg d'AZT (Δ), 50 mg/kg de muradimétide (D) ou simultanément par 100 mg/kg d'AZT et 50 mg/kg de muradimétide (O). Les comptages de plaquettes ou de globules rouges ont été réalisés au jour 0 et jusqu'à 10 jours suivant le début du traitement. […] La tendance à l'augmentation de leur nombre apparaît entre les jours 4 et 5. En revanche, l'anémie qui pourrait être observée dans les groupes traités pourrait être due aux saignements répétés; néanmoins la vitesse et l'importance de l'anémie est grandement réduite chez les animaux traités avec le mélange des deux produits en comparaison avec celui observé dans le groupe traité par l'AZT seul. […]

The next data set has as its system myélocytes. In words: Comparison of oral Muradimétide and MDPA on myelocyte count after i.v. AZT (Example 10, figure 8). The format is in vivo, souris swiss femelles. The conditions noted are these: AZT 40 mg/kg i.v. days 0-3; MDPA 25 mg/kg p.o. 4 h before AZT. The source says:
La figure 8 représente l'effet d'un traitement per os des souris avec du Muradimétide sur le changement de la numération myélocyte dans le sang circulant induite suite à une administration intra-veineuse d'AZT, deux dérivés de MDP étant comparés : le MDPA (Nac-Mur-L-ALa-D-Glu) et le Muradimétide.
Le dérivé utilisé pour mettre en évidence l'effet particulier du Muradimétide est le MDPA. La figure 8 indique l'effet sur des souris d'un traitement per os sur les changements de la numération de myélocyte induite suite à une administration intraveineuse d'AZT. Dans cette expérience, les souris swiss femelles ont été traitées de façon intraveineuse avec 40 mg par kg d'AZT aux jours 0, 1, 2 et 3. Des groupes de 5 souris ont reçu aux mêmes quatre jours et 4 heures avant l'AZT soit de l'eau physiologique, soit du MDPA à la dose de 25 mg par kg ou du Muradimétide par voie orale à la dose de 25 mg par kg. Les comptages de myélocytes ont été réalisés aux jours 0, 2, 3, 4 et 8. Les étoiles au-dessus des histogrammes ont la même signification que dans les diagrammes précédents.

Consider `Cc1cn([C@H]2C[C@H](N=[N+]=[N-])[C@@H](CO)O2)c(=O)[nH]c1=O` [AZT, 3'-Azido-3'-desoxy-thymidine, reference compound], for which the “effet sur la mobilisation des CHS (comptage des myélocytes)” value with myélocytes circulants is reported as “strictement aucun effet”. Moreover, the “toxicité sur les plaquettes” value in data set [1] is reported as “Aucune toxicité”.
`CC(=O)N[C@H]1C(O)O[C@H](CO)[C@@H](O)[C@@H]1O[C@H](C)C(=O)N[C@@H](C)C(=O)N[C@H](CCC(=O)O)C(=O)O` (stereo partly drawn) [MDPA, Nac-Mur-L-ALa-D-Glu]: the “effet antimyélotoxique et mobilisation des CSH dans la circulation sanguine” value in the data set on myélocytes is reported as “n'étant pas retrouvé”.
